Measurements taken from patent EP3390415B1, “(R)- AND (S)-1-(3-(3-N,N-DIMETHYLAMINOCARBONYL)PHENOXYL-4-NITROPHENYL)-1-ETHYL-N,N'-BIS (ETHYLENE)PHOSPHORAMIDATE, COMPOSITIONS AND METHODS FOR THEIR USE AND PREPARATION” (OBI PHARMA, INC., priority 2015, dated 2017).
Several values for one entry are separate records, joined by “and”; a condition that tells them apart may be missing. Equal values may be shown once. Read-outs that look alike come from different tables or passages of the source.

Experiments:
[1] = Acute toxicity study in monkeys, body weight; format: in vivo, Cynomolgus monkeys; set-up: unit not given here; settings: 2 mg/kg IV infusion
Method: (§1) TH 3423 and TH 3424 were tested in no naive monkeys (1 male and one female for each compound at 2 mg/kg) with 30-min intravenous infusion, TK sampling: on Day 1 and Day 15: 0.25, 0.5, 0.75, 1 and 2 hr post infusion initiation. Serum chemistry and hematology: pre-dose (Day 1), day 5, day 8 (pre-dose), day 15 (pre-dose), day 22 and day 28. Clinical observation: Daily during the study, total 35 days. Food consumption: Daily during the study, total 35 days. Bodyweight measurement: Twice weekly for five weeks.

[2] = Body weight and toxicity in the orthotopic liver cancer mouse model; format: in vivo, athymic nude mice; settings: intra-peritoneal, low or high dose (2.5 and 5 mg/kg)
[3] = tested on: TALL-1; test: In vitro human tumor cell line cytotoxicity assay; format: cell-based; settings: read-out: RelIC50
[4] = tested on: TE-9; test: In vitro human tumor cell line cytotoxicity assay; format: cell-based; settings: read-out: RelIC50
[5] = Pharmacokinetics (TK) after 30-min IV infusion in monkeys; format: in vivo, Cynomolgus monkeys; settings: 2 mg/kg 30-min IV infusion; for MRT inf / clearance / half-life / Vd / concentration at 0.25 hr / concentration at 0.5 hr / concentration at 0.75 hr / concentration at 1 hr / concentration at 2 hr: cynomolgus monkey, plasma; for half-life: read-out: Terminal t1/2 (converted); for Vd: read-out: Vss
Method: as §1

[6] = tested on: P30/OHK; test: In vitro human tumor cell line cytotoxicity assay; format: cell-based; settings: read-out: RelIC50
[7] = tested on: K-562; test: In vitro human tumor cell line cytotoxicity assay; format: cell-based; settings: K562, read-out: RelIC50
[8] = tested on: EC-GI-10; test: In vitro human tumor cell line cytotoxicity assay; format: cell-based; settings: read-out: RelIC50
[9] = tested on: TE-14; test: In vitro human tumor cell line cytotoxicity assay; format: cell-based; settings: read-out: RelIC50
[10] = tested on: MOLT-4; test: In vitro human tumor cell line cytotoxicity assay; format: cell-based; settings: read-out: RelIC50
[11] = tested on: HCCC9810; test: In vitro human tumor cell line cytotoxicity assay; format: cell-based; settings: for IC50: Homo sapiens
[12] = tested on: HepG2-GFP human hepatocellular carcinoma; test: Orthotopic mouse model of human liver cancer, tumor burden; format: in vivo, athymic nude mice; settings: for tumor inhibition rate IR(%): from final average tumor weights
Method: Female athymic nude mice (6 weeks of age) were used in this study. The animals were purchased from Beijing HFK Bioscience, Co., Ltd and maintained in a High Efficiency Particulate Air Filter (HEPA) filtered environment with cages, food, and bedding sterilized by irradiation or autoclaving. A total of 32 nude mice were used for the study. HepG2-GFP human hepatocellular carcinoma cells (AntiCancer, Inc., San Diego, CA) were incubated with RPMI-1640 (Gibco-BRL, Life Technologies, Inc.), which contained 10% FBS. Cells were grown in a CO2 Water Jacketed Incubator (Forma Scientific) maintaining 37°C and a 5% CO2/95% air atmosphere. Cell viability was determined by trypan blue exclusion analysis. Five female athymic nude mice were injected subcutaneously with a single dose of 5 x 10^6 HepG2-GFP cells. Tumors were harvested when their size reached 1cm^3 and the tumor tissues were then cut into small fragments of 1mm^3. Forty female nude mice were implanted orthotopically with a single piece of tumor fragment, which was derived from a subcutaneous tumor model of HepG2-GFP human hepatocellular carcinoma. The tumor tissue was orthotopically implanted in the right lobe of the liver in each mouse by SOI (Surgical Orthotopic Implantation). Briefly, an upper abdominal incision of 1cm was made under anesthesia. Right lobe of the liver was exposed and a part of the liver surface was injured mechanically by scissors. Then a piece of tumor fragment was fixed within the liver tissue, the liver was returned to the peritoneal cavity and the abdominal wall finally closed. Mice were kept in laminar-flow cabinets under specific pathogen-free-conditions.
Treatment was started three days after tumor implantation when the implanted tumors reached an average size of around 1 mm^2. The 32 tumor-bearing mice were randomly divided into four experimental groups of 8 mice each. Each cage was clearly marked for its group with four mice per cage. […] Table. Groups and treatment protocol
During the period of the study, all of the experimental mice were checked daily for mortality or signs of morbidity. […] The body weights of the mice were measured twice weekly during the study period. Images of tumor growth and progression were acquired twice a week during the period of the study with the FluorVivo imaging system, Model 300/Mag (INDEC, CA, USA). […] Livers were exposed for imaging, after which the tumors were removed and weighted with an electronic balance (Sartorius BS 124 S, Germany). Tumor tissues were kept in formalin for further analysis. Comparisons of body weights and tumor burdens in different groups were analyzed using the Student's t-test with an α = 0.05 (two-sided). After intravenously injection of the test agents, the mice had no lying, no autonomous activity reduction. The experimental animals were generally in good condition. Table. Comparison of mean mice body weight at the end of the study
The progressions of orthotopic HepG2-GFP hepatocellular carcinoma in different groups were monitored by real time imaging. Images were acquired twice a week. Typical tumor images at the end of the study in each group and tumor growth curves derived from the signals of tumor fluorescence, which were analyzed using the Power Station software (INDEC Biosystems, CA, USA), are shown in figure 6 and figure 7, respectively Table. Average tumor size in each group (mm2)

[13] = both sexes, mean, read-out: Plasma concentration, Mean
[14] = female, read-out: Plasma concentration
[15] = male, read-out: Plasma concentration

`C[C@H](OP(=O)(N1CC1)N1CC1)c1ccc([N+](=O)[O-])c(Oc2cccc(C(=O)N(C)C)c2)c1` (single isomer, unassigned) [TH3424] showed a body weight ([1]; Mean, Day 1) of 3.34, a body weight ([1]; Mean, Day 4) of 3.26 and a body weight ([1]; Mean, Day 8) of 3.20. The body weight ([1]; Mean, Day 11) was 3.06, the body weight ([1]; female, Day 1) was 3.28 and the body weight ([1]; female, Day 4) was 3.22. It also gave a body weight ([1]; female, Day 8) of 3.08, a body weight ([1]; female, Day 11) of 2.94 and a body weight ([1]; male, Day 1) of 3.40. For the same compound, the body weight ([1]; male, Day 4) was 3.30, the body weight ([1]; male, Day 8) was 3.31 and the body weight ([1]; male, Day 11) was 3.17. The “toxicity to the experimental mice” value [2] was “no obvious toxicity”, the “toxicity to the experimental mice” value ([2]; listed as TH2870-2) was “no obvious acute toxicity” and the IC50 [3] was 30 nM. It also gave an IC50 [4] of 11 nM, an AUCINF ([5]; Mean) of 1461 hr^∗ng/mL and an AUClast ([5]; Mean) of 1459 hr^∗ng/mL. For the same compound, the MRT inf ([5]; both sexes, Mean) was 13.9 min, the clearance ([5]; both sexes, Mean) was 23.7 mL/min/kg and the half-life ([5]; both sexes, Mean) was 10.9 min. It also gave a Vd ([5]; both sexes, Mean) of 0.325 L/kg, a concentration at 0.25 hr [5, 13] of 2160 ng/mL and a concentration at 0.5 hr [5, 13] of 2400 ng/mL. It also gave a concentration at 0.75 hr [5, 13] of 794 ng/mL, a concentration at 1 hr [5, 13] of 185 ng/mL and a concentration at 2 hr [5, 13] of 5.64 ng/mL. The concentration at 0.25 hr [5, 14] was 1850 ng/mL, the concentration at 0.5 hr [5, 14] was 2090 ng/mL and the concentration at 0.75 hr [5, 14] was 557 ng/mL. For the same compound, the concentration at 1 hr [5, 14] was 110 ng/mL, the concentration at 2 hr [5, 14] was 3.84 ng/mL and the MRT inf ([5]; female) was 12.9 min. For the same compound, the clearance ([5]; female) was 27.8 mL/min/kg, the half-life ([5]; female) was 10.9 min and the Vd ([5]; female) was 0.36 L/kg. It also gave a concentration at 0.25 hr [5, 15] of 2480 ng/mL, a concentration at 0.5 hr [5, 15] of 2720 ng/mL and a concentration at 0.75 hr [5, 15] of 1030 ng/mL. It also gave a concentration at 1 hr [5, 15] of 260 ng/mL, a concentration at 2 hr [5, 15] of 7.43 ng/mL and an MRT inf ([5]; male) of 15 min. It also gave a clearance ([5]; male) of 19.3 mL/min/kg, a half-life ([5]; male) of 10.9 min and a Vd ([5]; male) of 0.289 L/kg. It also gave an AUCINF ([5]; female) of 1196 hr^∗ng/mL, an AUClast ([5]; female) of 1195 hr^∗ng/mL and an AUCINF ([5]; male) of 1726 hr^∗ng/mL. It also gave an AUClast ([5]; male) of 1724 hr^∗ng/mL, an IC50 [6] of over 1000 nM and an IC50 [7] of over 1000 nM. For the same compound, the IC50 [8] was 13 nM, the IC50 [9] was 4.7 nM and the IC50 [10] was 10 nM. The “Max Inhibition%” value [11] was 95.4%, the “Min Inhibition%” value [11] was 2.1% and the IC50 ([11]; read-out: AbsIC50) was 13.9 nM. For the same compound, the IC50 ([11]; read-out: RelIC50) was 13.4 nM, the “Tumor area (mm^2) (mean ± sd)” value ([12]; 2.5mg/kg, QWx6, I.P., Day 35) was 1.2 ± 1.1 mm^2 and 1.2 ± 1.1(Day 35) mm^2 and the “Tumor area (mm^2) (mean ± sd)” value ([12]; 2.5mg/kg, QWx6, I.P., Day 49) was 2.0 ± 2.2 mm^2 and 2.0 ± 2.2(Day 49) mm^2. The “Tumor weight (g) (mean ± sd)” value ([12]; 2.5mg/kg, QWx6, I.P., Day 49) was 0.0081±0.0088 g and 0.0081±0.0088 (Day 49) g, the “average fluorescence imaging readout area as % of that in the negative control group” value ([12]; 2.5 mg/kg, day 35) was “around 8%” and the “average fluorescence imaging readout area as % of that in the negative control group” value ([12]; 2.5 mg/kg, day 49 after treatment) was “around 8%”. For the same compound, the “tumor inhibition rate IR(%)” value ([12]; 2.5 mg/kg) was 94.8%, the “Tumor area (mm^2) (mean ± sd)” value ([12]; 5mg/kg, QWx3, I.P.) was 0 mm^2 and 0.0 ± 0.0 mm^2 and the “Tumor weight (g) (mean ± sd)” value ([12]; 5mg/kg, QWx3, I.P.) was 0 g and 0.0000 ± 0.0000 g. The “tumor inhibition rate IR(%)” value ([12]; 5mg/kg) was 100%, the “average tumor weight as % of that in the negative control group” value ([12]; high dose group, 5mg/kg) was 0% and the “average tumor weight as % of that in the negative control group” value ([12]; low dose group, 2.5mg/kg) was 5.2%.
